Series [1] relates to HIV-1 (H9/IIIB strain). In words: Multiple round HIV-1 infection assay (Viking assay), HIV-1 replication in MT4-GFP cells. It is filed as cell-based. The following applies: MT4-GFP cells infected with HIV-1 H9/IIIB. As to the method:
The antiviral activity of the tenofovir prodrugs of the Examples herein was assessed in an assay that measures the rate of replication of HIV in cell culture, termed the Viking assay (VIral KINetics in Green cells) and performed as follows. HIV-1 replication was monitored using MT4-gag-GFP clone D3 (hereafter designated MT4-GFP; GFP is green fluorescent protein), which are MT-4 cells modified to harbor a GFP reporter gene, the expression of which is dependent on the HIV-1 expressed proteins tat and rev; see Wang Y-J et al., 2010J Virological Methods 165:230-237. Productive infection of an MT4-GFP cell with HIV-1 results in GFP expression approximately 24 h post-infection. MT4-GFP cells were maintained at 37° C./5% CO2/90% relative humidity in RPMI 1640 supplemented with 10% fetal bovine serum, 100 U/ml penicillin/streptomycin, and 400 μg/ml G418 to maintain the reporter gene. For infections, MT4-GFP cells were placed in the same medium lacking G418 and infected overnight with HIV-1 (H9/IIIB strain) virus at an approximate multiplicity of infection of 0.01 in the same incubation conditions. Cells were then washed and re-suspended in either RPMI 1640 supplemented with 10% or 50% normal human serum (NHS) at 1.6×10^5 cells/mL (10% NHS or 50% NHS, respectively). Compound plates were prepared by dispensing compounds dissolved in DMSO into wells of 384 well poly-D-lysine-coated plates (0.2 μl/well) using an ECHO acoustic dispenser. Each compound was tested in a 10-point serial 3-fold dilution (typical final concentrations: 8.4 μM-0.42 nM). Controls included no inhibitor (DMSO only) and a combination of three antiviral agents (efavirenz, indinavir, and an integrase strand transfer inhibitor at final concentrations of 4 μM each). Cells were added (50 μL/well) to compound plates and the infected cells were maintained at 37′C/5% CO2/90% relative humidity.
Infected cells were quantified at two time points, ˜48 h and ˜72 h post-infection, by counting the number of green cells in each well using an Acumen eX3 scanner. The increase in the number of green cells over ˜24 h period gives the reproductive ratio, R0, which is typically 5-15 and has been shown experimentally to be in logarithmic phase (data not shown). R0 is calculated for each well, and IC50s determined by non-linear 4-parameter curve fitting.

Series [2] is described as follows: Prodrug stability assay in bio-relevant media (FaSSIF with Pancreatin), GI Tract stability. The following applies: HPLC peak area of prodrug at 5 h divided by area at 0 h; 0.5 mg/mL Pancreatin in FaSSIF, 37° C. It is filed as in vitro ADME. As to the method: The following assay was employed to evaluate the stability of the prodrugs in simulated gastrointestinal tract conditions. Preparation of fasted state simulated intestinal fluid (FaSSIF) using Phares SIF Powder was carried out according to protocols from Phare Drug Delivery AG (Baselland, Switzerland). For sample preparation, 10 μL stock solutions (10 mM) of prodrug substance in DMSO was added to 990 μL of 0.5 mg/mL Pancreatin solution (Fisher CAS#8049-47-6) in FaSSIF. Two samples were prepared for each compound. If the sample was a clear solution, it was directly analyzed by HPLC. If the sample was not clear, the sample was diluted with 100% ACN, maintained at 37° C. and observed 5 h later. If the sample was clear, HPLC analysis was directly performed. If the sample was still not clear, the sample was diluted with 100% ACN and assayed by HPLC. All the samples were vortexed for 3 min and observed before injection. For the diluted samples, the area is multiplied by a factor when the data is analyzed. The analysis was carried out with an Agilent 1100 series HPLC with autosampler. The column was usually a Poroshell 120 EC-C18, 4.6×50 mm, 2.7 μm. The flow rate was 1.8 mL/min, and the injection volume was 5 or 10 μL. UV detection was in the range 210-400 nm. The mobile phase consisted of solvent A (water plus 10 mM tetrabutylammonium bromide) and solvent B (acetonitrile) with a gradient of 90% solvent A at 0 min, changing to 95% solvent B over 6 min, maintaining for 1.5 min, then reverting to 90% solvent A over 1.6 min. The HPLC peak area of the prodrug at 5 h was divided by the HPLC peak area of the prodrug at 0 h, to generate the % claimed parent ratio, which is summarized in Table 2. for GI Tract stability.

Setting [3] is: 10% normal human serum, read-out: Viking, IC50 (10% NHS).
[4] abbreviates: 50% normal human serum, read-out: Viking, IC50 (50% NHS).

Structures are written as SMILES. pIC50: −log10 of the molar value. Like-named read-outs stand apart in the source and are kept apart here.

As a reminder, the pIC50 is −log10 of the IC50, conventionally taken in molar units. Take `CCCCCCOC(=O)C(C)(C)NP(=O)(CO[C@H](C)Cn1cnc2c(N)ncnc21)N[C@H](C)C(=O)OC(C)C` (single isomer, unassigned) [Example 2A]: the pIC50 is 7.80 in series [1] (setting [3]) and 7.11 in series [1] (setting [4]). Besides, the “GI Tract stability” value in series [2] is 100%.
For the compound `CCCCCOC(=O)[C@@H](C)N(C)P(=O)(CO[C@H](C)Cn1cnc2c(N)ncnc21)NC(C)(C)C(=O)OCCCCC` (single isomer, unassigned) [Example 25B], the pIC50 is 8.44 in series [1] (Human immunodeficiency virus 1, IIIB, 10% normal human serum, read-out: Viking, IC50 (10% NHS)) and 8.02 in series [1] (Human immunodeficiency virus 1, IIIB, 50% normal human serum, read-out: Viking, IC50 (50% NHS)). Also, the “GI Tract stability” value in series [2] is given as 94.4%.
In the case of `CCCOC(=O)C(C)(C)NP(=O)(CO[C@H](C)Cn1cnc2c(N)ncnc21)N[C@H](C)C(=O)OC1CCC1` (single isomer, unassigned) [Example 22B], the pIC50 in series [1] (setting [3]) is 8.36; in series [1] (setting [4]) it was 7.81. For the same compound, in series [2], the “GI Tract stability” value came out at 72.6%.
In the same order, the values of `CCCCCCOC(=O)C(C)(C)NP(=O)(CO[C@H](C)Cn1cnc2c(N)ncnc21)N[C@H](C)C(=O)OCC(C)C` (single isomer, unassigned) [Example 10B] are 9.15, 8.70 and 66.8%.

The values above are taken from patent US10745428B2, “Antiviral phosphodiamide prodrugs of tenofovir” (Merck Sharp & Dohme Corp., priority 2015, dated 2020).
